{"source": "patent US9132140B2", "about": "“Boronic acid derivatives and therapeutic uses thereof” (Rempex Pharmaceuticals, Inc., priority 2013, dated 2015)", "key": {"KPM1122 (NDM, VIM)": {"system": "KPM1122 (NDM, VIM)", "format": "cell-based, Klebsiella pneumoniae", "from_the_text": "(§1) Several strains simultaneously expressing both class A and class B carbapenemases, which were constructed using conjugation, were also included in the panel."}, "KPM1109 (NDM, KPC)": {"system": "KPM1109 (NDM, KPC)", "format": "cell-based, Klebsiella pneumoniae", "from_the_text": "as §1"}, "KPM1099 (NDM, KPC)": {"system": "KPM1099 (NDM, KPC)", "format": "cell-based, Klebsiella pneumoniae", "from_the_text": "as §1"}, "EC1065 (IMP-1 CMY-2)": {"system": "EC1065 (IMP-1 CMY-2)", "format": "cell-based, Escherichia coli", "from_the_text": "as §1"}, "EC1061 (NDM-1, CMY-6)": {"system": "EC1061 (NDM-1, CMY-6)", "format": "cell-based, Escherichia coli", "from_the_text": "as §1"}, "EC1068 (VIM-1)": {"system": "EC1068 (VIM-1)", "format": "cell-based, Escherichia coli", "from_the_text": "as §1"}, "[1]": {"system": "EC1064 (NDM-1, CMY-6, CTX-M-15)", "format": "cell-based, Escherichia coli", "from_the_text": "as §1"}, "ECLM1015 (NDM, KPC)": {"system": "ECLM1015 (NDM, KPC)", "format": "cell-based, Enterobacter cloacae", "from_the_text": "as §1"}, "[2]": {"system": "ECL1057 (NDM-1, TEM-1, CTX-M-15)", "format": "cell-based, Enterobacter cloacae", "from_the_text": "as §1"}, "ECL1026 (KPC)": {"system": "ECL1026 (KPC)", "format": "cell-based, Enterobacter cloacae", "from_the_text": "as §1"}, "ECLM1016 (NDM, KPC)": {"system": "ECLM1016 (NDM, KPC)", "format": "cell-based, Enterobacter cloacae", "from_the_text": "as §1"}, "ECL1036 (KPC)": {"system": "ECL1036 (KPC)", "format": "cell-based, Enterobacter cloacae", "from_the_text": "as §1"}, "ECLM1018 (VIM, KPC)": {"system": "ECLM1018 (VIM, KPC)", "format": "cell-based, Enterobacter cloacae", "from_the_text": "as §1"}, "ECL1045 (VIM-1)": {"system": "ECL1045 (VIM-1)", "format": "cell-based, Enterobacter cloacae", "from_the_text": "as §1"}, "ECLM1017 (VIM, KPC)": {"system": "ECLM1017 (VIM, KPC)", "format": "cell-based, Enterobacter cloacae", "from_the_text": "as §1"}, "ECLM1019 (VIM, KPC)": {"system": "ECLM1019 (VIM, KPC)", "format": "cell-based, Enterobacter cloacae", "from_the_text": "as §1"}, "ECL1082 (VIM-1)": {"system": "ECL1082 (VIM-1)", "format": "cell-based, Enterobacter cloacae", "from_the_text": "as §1"}, "ECL1055 (KPC)": {"system": "ECL1055 (KPC)", "format": "cell-based, Enterobacter cloacae", "from_the_text": "as §1"}, "ECLM1014 (NDM, KPC)": {"system": "ECLM1014 (NDM, KPC)", "format": "cell-based, Enterobacter cloacae", "from_the_text": "as §1"}, "ECLM1013 (NDM, KPC)": {"system": "ECLM1013 (NDM, KPC)", "format": "cell-based, Enterobacter cloacae", "from_the_text": "as §1"}, "[3]": {"system": "KP1081 (NDM-1, TEM-1, SHV-11, CMY-6, CTX-M-15)", "format": "cell-based, Klebsiella pneumoniae", "from_the_text": "(§2) The results are present in Table 6.\n(§3) The results are present in Table 7."}, "[4]": {"system": "KP1087 (KPC-2, CTX-M-15, SHV-11, TEM-1)", "format": "cell-based, Klebsiella pneumoniae", "from_the_text": "as §2, §3"}, "ECM6703 (pUCP24-NDM-1)": {"system": "ECM6703 (pUCP24-NDM-1)", "experiment": "microbe, parasite or virus in culture", "format": "cell-based, E. coli", "details": "Escherichia coli, read-out: Imipenem MIC Alone"}, "EA1019 (SHV-5, VIM-1)": {"system": "EA1019 (SHV-5, VIM-1)", "format": "cell-based, Enterobacter aerogenes", "from_the_text": "as §1"}}}
{"compound": "C[C@@H](O)[C@H]1C(=O)N2C(C(=O)O)=C(SCCN=CN)C[C@H]12", "note": "[Imipenem, reference compound]", "values": [{"measurement": "Carbapenem MIC alone", "setting": "KPM1122 (NDM, VIM)", "value": "Z (key: X: MIC of less than 1 μg/mL; Y: MIC of 1 μg/mL to 10 μg/mL; Z: MIC of greater than 10 μg/mL)"}, {"measurement": "Carbapenem MIC alone", "setting": "KPM1109 (NDM, KPC)", "value": "Z (key: X: MIC of less than 1 μg/mL; Y: MIC of 1 μg/mL to 10 μg/mL; Z: MIC of greater than 10 μg/mL)"}, {"measurement": "Carbapenem MIC alone", "setting": "KPM1099 (NDM, KPC)", "value": "Z (key: X: MIC of less than 1 μg/mL; Y: MIC of 1 μg/mL to 10 μg/mL; Z: MIC of greater than 10 μg/mL)"}, {"measurement": "Carbapenem MIC alone", "setting": "EC1065 (IMP-1 CMY-2)", "value": "Y (key: X: MIC of less than 1 μg/mL; Y: MIC of 1 μg/mL to 10 μg/mL; Z: MIC of greater than 10 μg/mL)"}, {"measurement": "Carbapenem MIC alone", "setting": "EC1061 (NDM-1, CMY-6)", "value": "Y (key: X: MIC of less than 1 μg/mL; Y: MIC of 1 μg/mL to 10 μg/mL; Z: MIC of greater than 10 μg/mL)"}, {"measurement": "Carbapenem MIC alone", "setting": "EC1068 (VIM-1)", "value": "Y (key: X: MIC of less than 1 μg/mL; Y: MIC of 1 μg/mL to 10 μg/mL; Z: MIC of greater than 10 μg/mL)"}, {"measurement": "Carbapenem MIC alone", "setting": "[1]", "value": "Z (key: X: MIC of less than 1 μg/mL; Y: MIC of 1 μg/mL to 10 μg/mL; Z: MIC of greater than 10 μg/mL)"}, {"measurement": "Carbapenem MIC alone", "setting": "ECLM1015 (NDM, KPC)", "value": "Z (key: X: MIC of less than 1 μg/mL; Y: MIC of 1 μg/mL to 10 μg/mL; Z: MIC of greater than 10 μg/mL)"}, {"measurement": "Carbapenem MIC alone", "setting": "[2]", "value": "Z (key: X: MIC of less than 1 μg/mL; Y: MIC of 1 μg/mL to 10 μg/mL; Z: MIC of greater than 10 μg/mL)"}, {"measurement": "Carbapenem MIC alone", "setting": "ECL1026 (KPC)", "value": "Y (key: X: MIC of less than 1 μg/mL; Y: MIC of 1 μg/mL to 10 μg/mL; Z: MIC of greater than 10 μg/mL)"}, {"measurement": "Carbapenem MIC alone", "setting": "ECLM1016 (NDM, KPC)", "value": "Z (key: X: MIC of less than 1 μg/mL; Y: MIC of 1 μg/mL to 10 μg/mL; Z: MIC of greater than 10 μg/mL)"}, {"measurement": "Carbapenem MIC alone", "setting": "ECL1036 (KPC)", "value": "Y (key: X: MIC of less than 1 μg/mL; Y: MIC of 1 μg/mL to 10 μg/mL; Z: MIC of greater than 10 μg/mL)"}, {"measurement": "Carbapenem MIC alone", "setting": "ECLM1018 (VIM, KPC)", "value": "Z (key: X: MIC of less than 1 μg/mL; Y: MIC of 1 μg/mL to 10 μg/mL; Z: MIC of greater than 10 μg/mL)"}, {"measurement": "Carbapenem MIC alone", "setting": "ECL1045 (VIM-1)", "value": "Y (key: X: MIC of less than 1 μg/mL; Y: MIC of 1 μg/mL to 10 μg/mL; Z: MIC of greater than 10 μg/mL)"}, {"measurement": "Carbapenem MIC alone", "setting": "ECLM1017 (VIM, KPC)", "value": "Z (key: X: MIC of less than 1 μg/mL; Y: MIC of 1 μg/mL to 10 μg/mL; Z: MIC of greater than 10 μg/mL)"}, {"measurement": "Carbapenem MIC alone", "setting": "ECLM1019 (VIM, KPC)", "value": "Z (key: X: MIC of less than 1 μg/mL; Y: MIC of 1 μg/mL to 10 μg/mL; Z: MIC of greater than 10 μg/mL)"}, {"measurement": "Carbapenem MIC alone", "setting": "ECL1082 (VIM-1)", "value": "Z (key: X: MIC of less than 1 μg/mL; Y: MIC of 1 μg/mL to 10 μg/mL; Z: MIC of greater than 10 μg/mL)"}, {"measurement": "Carbapenem MIC alone", "setting": "ECL1055 (KPC)", "value": "Y (key: X: MIC of less than 1 μg/mL; Y: MIC of 1 μg/mL to 10 μg/mL; Z: MIC of greater than 10 μg/mL)"}, {"measurement": "Carbapenem MIC alone", "setting": "ECLM1014 (NDM, KPC)", "value": "Y (key: X: MIC of less than 1 μg/mL; Y: MIC of 1 μg/mL to 10 μg/mL; Z: MIC of greater than 10 μg/mL)"}, {"measurement": "Carbapenem MIC alone", "setting": "ECLM1013 (NDM, KPC)", "value": "Z (key: X: MIC of less than 1 μg/mL; Y: MIC of 1 μg/mL to 10 μg/mL; Z: MIC of greater than 10 μg/mL)"}, {"measurement": "Carbapenem MIC alone", "setting": "[3]", "value": "Z (key: X: MIC of less than 1 μg/mL; Y: MIC of 1 μg/mL to 10 μg/mL; Z: MIC of greater than 10 μg/mL)"}, {"measurement": "Carbapenem MIC alone", "setting": "[4]", "value": "Y (key: X: MIC of less than 1 μg/mL; Y: MIC of 1 μg/mL to 10 μg/mL; Z: MIC of greater than 10 μg/mL)"}, {"measurement": "MIC", "setting": "ECM6703 (pUCP24-NDM-1)", "value": "> 1", "unit": "µg/mL"}, {"measurement": "Carbapenem MIC alone", "setting": "EA1019 (SHV-5, VIM-1)", "value": "Z (key: X: MIC of less than 1 μg/mL; Y: MIC of 1 μg/mL to 10 μg/mL; Z: MIC of greater than 10 μg/mL)"}]}
